Legend:
[1] = system: peripheral blood monocytes from healthy donors and rheumatoid arthritis patients; assay: Monocyte chemotaxis assay (96-well chemotaxis plates); type: cell-based, human; conditions: for migration of monocytes in combination with galectin-3: FIG. 14B, 14C
Description: Peripheral blood mononuclear cells (PBMCs) were isolated from 6 healthy volunteer donors and 6 rheumatoid arthritis (RA) patients following informed consent and in accordance with protocols approved by the AMC Medical Ethics committee. Donor blood was diluted with cold PBS and PBMCs isolated by centrifugation over Ficoll. The PBMC layer was recovered and washed twice with PBS. Cells were counted, and monocytes isolated using a Dynal monocytes negative isolation kit as per the manufacturer's instructions. Monocytes were resuspended at 2×10^6 cells/ml in RPMI medium containing 0.5% fetal calf serum.
Chemotaxis assays were performed using 96-well disposable chemotaxis plates (Neuroprobe, 8 μm diameter pore size). Wells were preincubated for 1 hour at 37° C. with medium alone (RPMI containing 0.5% fetal calf serum), murine anti-human galectin-3 antibody B2C10 (0.1, 1 or 3 μg/ml) or lactose (10 mM). Lactose is a non-specific inhibitor of galectin-3. Purified recombinant human galectin-3 (1, 10 or 100 nM) was also included in the preincubation step. 5×10^4 monocytes obtained from healthy donors were added to the top of the filter in triplicate wells and cells allowed to migrate for 90 minutes at 37° C. The filter was then washed with PBS, and adhering non-migrating cells removed from the top of the filter by wiping. Migrating cells within the filter Were visualized by staining with crystal violet solution and washing with water. Following air-drying overnight, a computer digital imaging analyzer was used to capture 20 high-powered (400× magnification) fields encompassing the complete transwell filter, and migrating cells counted manually. FIG. 12 provides the relative amount migration (chemotaxis) in the presence of varying levels of galectin-3 and inhibitors of galectin-3 activity (B2C10 and lactose).
In a second experiment, wells were preincubated for 1 hour at 37° C. with medium alone (RPMI containing 0.5% fetal calf serum), murine anti-human galectin-3 antibody B2C10 (0.1, 1 or 3 μg/ml) or lactose (10 mM). Lactose is a non-specific inhibitor of galectin-3. Purified recombinant human galectin-3 (1, 10 or 100 nM) was also included in the preincubation step. 5×10^4 monocytes obtained from rheumatoid arthritis patients were added to the top of the filter in triplicate wells and cells allowed to migrate for 90 minutes at 37° C. The filter was then processed as described above and migrating cells were counted manually. […]
Monocytes from 6 rheumatoid arthritis patient were stimulated with 6 different synovial fluids and monocyte chemotaxis was measured as described above in the presence of different concentrations of galectin-3 blocking antibody. […]

rheumatoid arthritis = conditions: methotrexate treatment, known effect; cited from earlier work
[2] = system: arthritis induced by monoclonal antibodies raised against type II collagen, plus lipopolysaccharide; assay: Inflammation, Collagen Arthritis, mAb in Mice (hind paw volume); type: in vivo, BALB/c mice
Description: Galectin-3 Ab was evaluated for possible anti-inflammatory activity in BALB/c mice with arthritis induced by monoclonal antibodies (mAb) raised against type II Collagen, plus lipoplysaccharide. Galectin-3 Ab (1, 0.5 and 0.25 mg/mouse×3) was administered intraperitoneally once daily for 3 consecutive days starting on day 3. Volumes of both hind paws were measured on days 5, 7, 10, 14 and 17 and the sum of both hind paw volumes was calulated. A 30% percent or more reduction (−30%) relative to the vehicle-treated group indicates significant.
Galectin-3 Ab, B2C10 from Pharmingen, was dissolved in distilled water. Test substance at 1, 0.5 and 0.25 mg/mouse and vehicle were each administered intraperitoneally once daily for 3 consecutive days starting on day 3. The dosing volume was 0.2 ml/mouse for the test compound or 10 ml/kg (PO) for indomethacin. All treatments are summarized below:
Collagen Arthritis, mAb Groups of 7 BALB/c strain mice, 6-7 weeks of age, were used for the induction of arthritis by monoclonal antibodies (mAbs) raised against type II collagen, plus lipopolysaccharide (LPS). A combination of 4 different mAbs (D8, F10, DI-2G and A2) totaling 4 mg/mouse was administered to the animals intravenously on day 0, followed by intravenous challenge with […] of LPS 72 hours later (day3). From one hour after LPS injection, Galectin-3 Ab (1, 0.5 and 0.25 mg/mouse) and vehicle were each administered intraperitoneally once daily for 3 consecutive days starting on day 3. Whereas, indomethacin which served as the positive control was administered orally (3 mg/kg) once daily for 3 consecutive days at the same time schedule as test compound. For each animal, volumes of both hind paws were measured using a plethysmometer with water cell (12 mm diameter) on Days 0, 5, 7, 10, 14 and 17. Percent inhibition of increase in volume was calculated by the following formula: Inhibition (%): [1−(Tn−T0)/(Cn−C0)]×100% • Where: • C0 (Cn): volume of day 0 (day n) in vehicle control • T0 (Tn): volume of day 0 (day n) in test compound-treated group.
Reduction of edema in the hind paws by 30% or more (^3 30%) is considered significant. In addition, body weight was documented during the testing period of day 0, 5, 7, 10, 14 and 17 in each animal percentage of body weight of each compound group at time points were calculated referring to the vehicle control group at each measurement day as 100%.

For “MCP-1: Monocyte Chemotactic Protein-1, chemotactic cytokine”, the “migration of monocytes in combination with galectin-3” value ([1]; single healthy donor) was “induce migration”.
For `CN(Cc1cnc2nc(N)nc(N)c2n1)c1ccc(C(=O)N[C@@H](CCC(=O)O)C(=O)O)cc1` [Methotrexate, methotrexate], the “decrease of synovial cell density” value (rheumatoid arthritis) is listed as “approximately 30%”, the “decrease of the concentration of IL-6 in synovial tissue” value (rheumatoid arthritis) is listed as 93% and the “decrease of the rate of cartilage degradation” value (rheumatoid arthritis) is listed as “approximately 15%”.
For “Galectin-3: purified recombinant human galectin-3”, the “induction of chemotactic activity, alone” value ([1]; healthy donor or RA peripheral blood monocytes, 1, 10 or 100 nM) was “does not reproducibly induce chemotactic activity” and the “monocyte chemotaxis in the presence of 1 ng/ml fMLP” value ([1]; single healthy donor, FIG. 14A) was “increases monocyte chemotaxis in a concentration dependent manner”.
For `COc1ccc2c(c1)c(CC(=O)O)c(C)n2C(=O)c1ccc(Cl)cc1` [Indomethacin, indomethacin], the “(%) Reduction of Edema vs. Vehicle Control” value (“(%) Reduction” for short) ([2]; Day 5, PO 3 mg/kg × 3, parenthesis = significant) was “(94) %”, the “(%) Reduction” value ([2]; Day 5, PO 3 mg/kg × 3, parenthesis = significant, listed as indomethacin) was 94% and the “(%) Reduction” value ([2]; Day 7, PO 3 mg/kg × 3, parenthesis = significant) was “(70) %”. The “(%) Reduction” value ([2]; Day 7, PO 3 mg/kg × 3, parenthesis = significant, listed as indomethacin) was 70%, the “(%) Reduction” value ([2]; Day 10, PO 3 mg/kg × 3, parenthesis = significant) was “(85) %” and the “(%) Reduction” value ([2]; Day 10, PO 3 mg/kg × 3, parenthesis = significant, listed as indomethacin) was 85%. The “(%) Reduction” value ([2]; Day 14, PO 3 mg/kg × 3, parenthesis = significant) was “(85) %”, the “(%) Reduction” value ([2]; Day 14, PO 3 mg/kg × 3, parenthesis = significant, listed as indomethacin) was 85% and the “(%) Reduction” value ([2]; Day 17, PO 3 mg/kg × 3, parenthesis = significant) was “(84) %”. For the same compound, the “(%) Reduction” value ([2]; Day 17, PO 3 mg/kg × 3, parenthesis = significant, listed as indomethacin) was 84%.
For “SDF-1: Stromal cell-Derived Factor-1, chemotactic cytokine”, the “migration of monocytes in combination with galectin-3” value ([1]; single healthy donor) was “induce migration”.

— patent US20050158321A1, “Treatment of rheumatoid arthritis with galectin-3 antagonists” (Entelos, Inc., priority 2003, published 2005)
